Experimental data published in ChEMBL document CHEMBL3507680, “University of Dundee, Gates Library screen for HepG2 cell viability”.

Experiment: Human HepG2 cell viability assay in 384 well format
Format: toxicity, cell-based
Parameters: dose 125 nL, time 70.5 hour; cytotoxicity at 70.5 h: concentration not given beside the values
Conditions: HepG2 cells, read-out: Inhibition

| Compound | cytotoxicity at 70.5 h [%] |
| --- | --- |
| O=C(NCc1ccccn1)Nc1ccc2[nH]nnc2c1 | -4.24 |
| Cc1cccc(-c2ccc(C(=O)NCC3CCCO3)c(=O)[nH]2)c1 (stereo not given) | -10.2 |
| O=C(C1CC1)N1CCC2(CC1)OCCO2 | -6.55 |
| NC(=O)c1ccc2c(c1)nc1n2CCN(Cc2ccccc2)C1 | -15.9 |
| Cc1cc(NC(=O)CN2CCCC2c2c(C)nn(C)c2Cl)on1 (stereo not given) | -0.864 |
| CNC(=O)[C@H]1C[C@@H]2CN(S(=O)(=O)c3ccc(OC)cc3)C[C@@H]2N1C | -1.32 |
| Cc1cc(C)nc(NCc2nnc3n2CCCCC3)n1 | 13.9 |
| COc1ncccc1CN1C[C@H]2CCN(c3ncccn3)C[C@H]2C1 | 1.43 |
| Cc1nccc(C2CN(Cc3cc[nH]n3)CCO2)n1 (stereo not given) | -15.2 |
| Cc1ccc(CN(CC(=O)NC2CCOCC2)c2ccc(F)cc2)o1 | 1.79 |
| Cc1ccc(CNc2nc(O)cc(C3CC(=O)N(C)C3)n2)cc1 (stereo not given) | -4.28 |
| CN1CCOC[C@H]1c1nc(-c2ccncc2)c[nH]1 | 1.37 |
| CCc1ccc2c(C3CN(CC4CCC4)C3)ncn2c1 | -6.64 |
| O=C(CCc1ccccc1)C1CCCN(Cc2cncn2C2CC2)C1 (stereo not given) | 2.12 |
| CC1(C)Cc2ccccc2-c2nc(NCCCO)[nH]c(=O)c21 | -3.41 |
| O=C(C1CC(F)(F)C1)N1CC[C@H]2OCC[C@@]2(COCC2CC2)C1 | -1.76 |
| CCn1nc(C)c2nc(C(C)C)nc(N3CCC(O)CC3)c21 | -15.2 |
| COc1ccc(-c2n[nH]cc2CNC2CCN(C3CC3)CC2)cc1 | -2.67 |
| COCC1CN(C(=O)Nc2ccc(Cl)cc2Cl)CCO1 (stereo not given) | -8.42 |
| CC(=O)N1CCC2(CCN(S(=O)(=O)c3ccccc3)CC2)C1 | 22.3 |
| Cc1nc[nH]c1CNC1CC(=O)N(CCc2cccc(Cl)c2)C1 (stereo not given) | -2.03 |
| CC(C)OCCN1CCC(N2CCN(C)C2=O)CC1 | -2.99 |
| Cc1cnc(C(=O)NC(COCC(C)C)c2ccco2)cn1 (stereo not given) | -0.693 |

| Compound | cytotoxicity at 70.5 h [%] |
| --- | --- |
| Cc1cccc(CN2CCc3c(CNC(=O)CC#N)nn(C)c3C2)n1 | -0.367 |
| CS(=O)(=O)N1CCCC(c2nc(-c3ccccc3)c[nH]2)C1 (stereo not given) | -7.34 |
| CCN(C(=O)c1ccc(-n2ncc(C#N)c2N)cc1)C1CCCC1 | -12.1 |
| Cc1cc(F)cc(S(=O)(=O)Nc2ccn(CCCC#N)n2)c1 | -9.51 |
| CC1COCCN1Cc1nc(-c2cccc(Br)c2)no1 (stereo not given) | 13.8 |
| COc1ccc(CN(CC2CCCO2)C(=O)CN2CCOC2=O)cc1 (stereo not given) | -14.7 |
| O=C(c1ccccc1Cl)N1CCN(CCc2ccccn2)CC1 | -5.74 |
| CCc1nccc(CN2CCCC(CNC(=O)c3occc3C)C2)n1 (stereo not given) | -10.1 |
| CC(C)Nc1ncnc2c1CCN(c1cc(C(F)(F)F)ncn1)CC2 | 3.48 |
| COc1cc(CNC2CCc3nc(C(C)C)nn3C2)cc2c1OCO2 (stereo not given) | -13.1 |
| Cc1nonc1NC(=O)c1ccc(F)c(COCC2CC2)c1 | 11.9 |
| Cc1cc2ccccc2n1CCC(=O)NCc1ncc[nH]1 | -1.07 |
| CCOc1ccccc1CSCCn1nc2ccccn2c1=O | -10.1 |
| Cc1nc(CNC(=O)NCC(O)c2ccc(F)cc2)cs1 (stereo not given) | -3.15 |
| COc1ccccc1C1(CNC(=O)NCc2noc(C)n2)CC1 | 26.4 |
| CC(=O)c1cccc(C(=O)N2C[C@@H](CN3CCCCCC3)[C@@H](CO)C2)c1 | -5.31 |
| O=C(NCc1ccccc1)c1nc2c(o1)CN(C(=O)c1cccnc1)C2 | -9 |
| CC(C)Nc1ncnc2c1CCN(C(=O)c1ccc[nH]1)CC2 | -9.63 |
| Cc1cccc(CN2CCCCC23CCNC3)n1 (stereo not given) | -8.16 |
| Cc1cc(CN2CCC(c3cc(Cc4ccccc4)n[nH]3)CC2)[nH]n1 | -16.6 |
| CN1C[C@H](O)C[C@H]1c1nc(-c2ccc3c(c2)OCO3)no1 | -0.612 |
| Cn1cccc1C(=O)N1CCN(Cc2cccnc2)c2ncccc2C1 | -8.24 |
